This is an account of results in patent US5681739A.

The nature of data set [1]: pH, Eh and total chromium of soil cultures after growth. In kind it is physicochemical. Particulars: cell-free supernatants, after 32 hours of growth. As to the method:
Immediately after collection in sterile containers, the soil samples were stored at 4° C. for 30 days before use. Soil dilutions (10^-1 g/mL) were made in sterile isotonic phosphate buffer. One mL of each soil dilution was inoculated into 165 mL sealed serum vials containing 50 mL of TSB with N2 in the headspace. The serum vials and their contents were sterilized prior to inoculation.
Cr(VI) was added to the culture broth as K2 CrO4 to a final concentration of about 20 mg/L of Cr(VI). Cultures were incubated, at 30° C. on a gyratory shaker at 100 rpm, in an inverted position to limit gas leakage. Samples were analyzed periodically for Cr(VI) concentration and cell density.
After 32 hours of growth, pH, Eh, and total chromium levels of the cultures of Example 6 were determined. The initial pH of TSB was 7.04. Eh was measured with a platinum electrode (Microelectrodes, Inc., Londonderry, N.H.) using an ACCUMET 50 digital pH meter (Fisher Scientific, Pittsburgh, Pa.). Total chromium was analyzed with inductively coupled plasma emission spectroscopy (Model 3410, ARL) of clarified cultures.

In another data set the test system is soil cultures. In kind it is cell-based. To be noted: soil cultures of Example 6 after 32 hours of growth.

Each structure is given as a SMILES string.

On to `[Cr+3]` [Cr(III)], for which the “Cr(III) precipitation out of solution” value in data set [1] was “no evidence of Cr(III) precipitating out of solution”. For the same compound, the “bacterial growth inhibition related to Cr(III)” value with soil cultures is reported as “no evidence of Cr(III) precipitating out of solution or bacterial growth inhibition related to Cr(III)”.
